Results on 36 compounds are retold here after ChEMBL document CHEMBL1134442, “Novel selective PDE4 inhibitors. 2. Synthesis and structure-activity relationships of 4-aryl-substituted cis-tetra- and cis-hexahydrophthalazinones” (J Med Chem, 2001).

In one assay the target is Phosphodiesterase 3 (Homo sapiens, UniProt Q14432+Q13370). The assay can be described thus: Inhibitory activity of the against phosphodiesterase 3 (PDE3); No significant inhibitory activity at pIC50. In kind it is protein assay.
In the next assay the target is Phosphodiesterase 4 (Homo sapiens, UniProt P27815+Q08499+Q07343+Q08493). Briefly: Inhibition of phosphodiesterase 4 (PDE4) in human neutrophils. Type of assay: protein assay.

Some results are limits rather than exact numbers.

`COc1ccc(C2=NN(C3CCCCCC3)C(=O)C3CC=CCC23)cc1OCC1CC1` (stereo not given): the pIC50 against Phosphodiesterase 3 is under 5.5; at Phosphodiesterase 4, 9.
In the same order, the values of `COc1ccc(C2=NN(C3CCCCCC3)C(=O)C3CC=CCC23)cc1OCCCCCc1ccccc1` (stereo not given) are under 5.5 and 8.3.
In the same order, the values of `COc1ccc(C2=NN(C3CCCCCC3)C(=O)C3CC=CCC23)cc1O` (stereo not given) are under 5.5 and 7.4.
In the same order, the values of `COc1ccc(C2=NN(C3CCCCCC3)C(=O)C3CC=CCC23)cc1OCCCCCCOc1ccc(C(N)=O)cc1` (stereo not given) are under 5.5 and 9.5.
Turning to `COc1ccc(C2=NN(Cc3ccccc3)C(=O)C3CCCCC23)cc1OC1CCCC1` (stereo not given), the pIC50 is given as under 5.5 against Phosphodiesterase 3 and 8 on Phosphodiesterase 4.
Turning to `COc1ccc(C2=NN(Cc3ccccc3)C(=O)C3CCCCC23)cc1` (stereo not given), the pIC50 is under 5.5 against Phosphodiesterase 3 and 5.9 against Phosphodiesterase 4.
Regarding `COc1ccc(C2=NN(C3CCCCCC3)C(=O)C3CC=CCC23)cc1OC` (stereo not given), the pIC50 was under 5.5 against Phosphodiesterase 3 and 9.1 at Phosphodiesterase 4.
As to `COc1ccc(C2=NN(C3CCCCCC3)C(=O)C3CC=CCC23)cc1OCCCCOc1ccc(-n2ccnc2)cc1` (stereo not given), the pIC50 is on record as under 5.5 against Phosphodiesterase 3 and 9.7 against Phosphodiesterase 4.
In the same order, the values of `COc1ccc(C2=NN(C3CCCCCC3)C(=O)C3CC=CCC23)cc1OCCN(C)C` (stereo not given) are under 5.5 and 7.2.
In the same order, the values of `COc1ccc(C2=NN(Cc3ccccc3)C(=O)C3CCCCC23)c2c1OC1(CCCC1)C2` (stereo not given) are under 5.5 and 8.6.
In the same order, the values of `COc1ccc(C2=NN(C3CCCCCC3)C(=O)C3CC=CCC23)cc1OCCO` (stereo not given) are under 5.5 and 8.4.
With `COc1ccc(C2=NN(C3CCCCCC3)C(=O)C3CC=CCC23)c2c1OC1(CCCC1)C2` (stereo not given), the values for the pIC50 at Phosphodiesterase 3 and at Phosphodiesterase 4 were under 5.5 and 9.2, respectively.
With `COc1ccc(C2=NN(C3CCCCCC3)C(=O)C3CC=CCC23)cc1OCCCC(=O)O` (stereo not given), the pIC50 is listed as under 5.5 against Phosphodiesterase 3 and 7.2 against Phosphodiesterase 4.
Consider `COc1ccc(C2=NN(C3CCCCCC3)C(=O)C3CC=CCC23)cc1OC1CCCC1` (stereo not given), for which the pIC50 at Phosphodiesterase 3 is given as under 5.5; on Phosphodiesterase 4 it was 8.9.
In the same order, the values of `COc1ccc(C2=NN(C3CCCCCC3)C(=O)C3CC=CCC23)cc1OC(F)F` (stereo not given) are under 5.5 and 8.8.
As for `COc1cccc(C2=NN(Cc3ccccc3)C(=O)C3CCCCC23)c1` (stereo not given), the pIC50 against Phosphodiesterase 3 is under 5.5; against Phosphodiesterase 4, 5.6.
In the same order, the values of `COc1ccc(C2=NN(Cc3ccccc3)C(=O)C3CCCCC23)cc1OC` (stereo not given) are under 5.5 and 8.1.
In the same order, the values of `COc1ccc(C2=NN(C3CCCCCC3)C(=O)C3CC=CCC23)cc1OCCCCOc1ccc(C(=O)O)cc1` (stereo not given) are under 5.5 and 9.5.
In the case of `COc1cc(C2=NN(Cc3ccccc3)C(=O)C3CCCCC23)ccc1OC1CCCC1` (stereo not given), the pIC50 against Phosphodiesterase 3 was under 5.5; against Phosphodiesterase 4, under 5.
In the same order, the values of `COc1ccc(C2=NN(C3CCCCCC3)C(=O)C3CC=CCC23)cc1OCCCCN(C)C` (stereo not given) are under 5.5 and 7.4.
In the same order, the values of `COc1ccc(C2=NN(C3CCCCCC3)C(=O)C3CC=CCC23)cc1OCCCCCCOc1ccc(C(=O)O)cc1` (stereo not given) are under 5.5 and 8.7.
In the same order, the values of `COc1ccc(C2=NN(C3CCCCCC3)C(=O)C3CC=CCC23)c2c1OC(C)(C)C2` (stereo not given) are under 5.5 and 9.
Take `COc1ccc(C2=NN(C3CCCCCC3)C(=O)C3CC=CCC23)cc1OCCCCn1cnc2ncncc21` (stereo not given): the pIC50 was under 5.5 against Phosphodiesterase 3 and 7.6 at Phosphodiesterase 4.
In the same order, the values of `COc1ccc(C2=NN(C3CCCCCC3)C(=O)C3CC=CCC23)cc1OCCCCC(=O)O` (stereo not given) are under 5.5 and 7.8.
In the same order, the values of `COc1ccc(C2=NN(C3CCCCCC3)C(=O)C3CC=CCC23)cc1OCCCCOc1ccc(C#N)cc1` (stereo not given) are under 5.5 and 8.6.
In the case of `O=C1C2CCCCC2C(c2ccccc2)=NN1Cc1ccccc1` (stereo not given), the pIC50 on Phosphodiesterase 3 is on record as under 5.5; at Phosphodiesterase 4 it was under 5.
In the same order, the values of `COc1ccc(C2=NN(C3CCCCCC3)C(=O)C3CC=CCC23)cc1OCCCCCCOc1ccccc1` (stereo not given) are under 5.5 and 8.
As to `COc1ccc(C2=NN(C3CCCCCC3)C(=O)C3CC=CCC23)cc1OCCCCOc1ccc(-c2nn[nH]n2)cc1` (stereo not given), the results for the pIC50 against Phosphodiesterase 3 and at Phosphodiesterase 4 were under 5.5 and 9.2, respectively.
As to `COc1ccc(C2=NN(C3CCCCCC3)C(=O)C3CC=CCC23)cc1OCCCCn1ccnc1` (stereo not given), the pIC50 at Phosphodiesterase 3 was under 5.5; at Phosphodiesterase 4, 8.1.
In the same order, the values of `O=C1C2CCCCC2C(c2ccc3c(c2)OCO3)=NN1Cc1ccccc1` (stereo not given) are under 5.5 and 5.8.
In the same order, the values of `COc1ccc(C2=NN(C3CCCCCC3)C(=O)C3CC=CCC23)cc1Cl` (stereo not given) are under 5.5 and 8.
Regarding `O=C1C2CCCCC2C(c2cccc(Cl)c2)=NN1Cc1ccccc1` (stereo not given), the pIC50 at Phosphodiesterase 3 is recorded as under 5.5; on Phosphodiesterase 4 it was under 5.
In the same order, the values of `COc1ccc(C2=NN(C3CCCCCC3)C(=O)C3CC=CCC23)cc1OCC(=O)O` (stereo not given) are under 5.5 and 5.6.
Consider `CCOc1ccc(C2=NN(Cc3ccccc3)C(=O)C3CCCCC23)cc1OCC` (stereo not given), for which the pIC50 against Phosphodiesterase 3 is on record as under 5.5; at Phosphodiesterase 4, 7.8.
Turning to `COc1ccc([C@@H]2CNC(=O)C2)cc1OC1CCCC1` [(-)-ROLIPRAM], the pIC50 on Phosphodiesterase 3 is under 5.5.
On the same count and under the same terms, next, `COc1ccc([C@]2(C#N)CC[C@@H](C(=O)O)CC2)cc1OC1CCCC1` [CILOMILAST]: under 5.5.

A word on the pIC50: it is the negative decadic logarithm of the IC50, by convention in mol/L.
